Data taken from PubChem BioAssay (NCI).
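Where inhibition never reached the appropriate level, the endpoint shown equals the highest concentration tested. Otherwise, values were interpolated linearly from a five-concentration, 48-hour dose response in 96-well plates. The concentration for 50% growth inhibition is given as GI50. At the TGI there is no net growth.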

Experiments:
Assay in all cases: NCI tumour cell line growth inhibition, 48 h
SK-MEL-5 melanoma = system: SK-MEL-5 melanoma
MDA-MB-231 breast = system: MDA-MB-231 breast
DMS 114 small cell lung = system: DMS 114 small cell lung
SNB-78 CNS = system: SNB-78 CNS
KM20L2 colon = system: KM20L2 colon
M19-MEL melanoma = system: M19-MEL melanoma
HCC-2998 colon = system: HCC-2998 colon
MDA-MB-435 = system: MDA-MB-435
DLD-1 colon = system: DLD-1 colon
BT-549 breast = system: BT-549 breast

C/C([O-])=C1\Cc2ccccc2C1=O.C/C([O-])=C1\Cc2ccccc2C1=O.CC[O-].CC[O-].[Ti+4]
GI50 (SK-MEL-5 melanoma): 19.3 µM | TGI (SK-MEL-5 melanoma): > 57.8 µM | GI50 (MDA-MB-231 breast): 12.9 µM | TGI (MDA-MB-231 breast): 70.9 µM | GI50 (DMS 114 small cell lung): 18.7 µM | TGI (DMS 114 small cell lung): 37.4 µM | GI50 (SNB-78 CNS): 24 µM | TGI (SNB-78 CNS): > 100 µM | GI50 (KM20L2 colon): 29.2 µM | TGI (KM20L2 colon): > 100 µM | GI50 (M19-MEL melanoma): 16.8 µM | TGI (M19-MEL melanoma): 34.8 µM | GI50 (HCC-2998 colon): 17.3 µM | TGI (HCC-2998 colon): 58.8 µM | GI50 (MDA-MB-435): 17.6 µM | TGI (MDA-MB-435): 43 µM | GI50 (DLD-1 colon): 18.7 µM | TGI (DLD-1 colon): > 100 µM

CCC(CC)n1cc(C(=O)NC(=O)NCCCCCOC(=O)CCCCCCCCCCC(=O)OCCCCCNC(=O)NC(=O)c2cn(C(CC)CC)c(=O)[nH]c2=O)c(=O)[nH]c1=O
TGI (SK-MEL-5 melanoma): > 100 µM | TGI (DMS 114 small cell lung): > 100 µM | TGI (SNB-78 CNS): > 100 µM | TGI (KM20L2 colon): > 100 µM | TGI (M19-MEL melanoma): > 100 µM | TGI (HCC-2998 colon): > 100 µM | TGI (DLD-1 colon): > 100 µM

Cc1cc(C)c2c(c1)Nc1ccccc1P2c1ccccc1 (stereo unspecified)
TGI (DMS 114 small cell lung): > 100 µM | TGI (SNB-78 CNS): > 100 µM | TGI (KM20L2 colon): 74.7 µM | TGI (HCC-2998 colon): 60 µM | TGI (DLD-1 colon): 65.7 µM

N#C/C(=C1\NN=C(N)C(c2ccc(Cl)cc2)=C1O)c1ccc(Cl)cc1
TGI (DMS 114 small cell lung): > 100 µM | TGI (SNB-78 CNS): > 100 µM | TGI (KM20L2 colon): > 100 µM | TGI (M19-MEL melanoma): > 100 µM | TGI (HCC-2998 colon): > 100 µM | TGI (DLD-1 colon): > 100 µM

COC(=O)C1C2C=CC(C2)C1(C(=O)OC)S(=O)CC12CCC(CC1O)C2(C)C (stereo unspecified)
TGI (SK-MEL-5 melanoma): > 100 µM | TGI (DMS 114 small cell lung): > 100 µM | TGI (SNB-78 CNS): > 100 µM | TGI (KM20L2 colon): > 100 µM | TGI (M19-MEL melanoma): > 100 µM | TGI (HCC-2998 colon): > 100 µM | TGI (DLD-1 colon): > 100 µM

O=c1c2cccc3cccc(c4oc5c6cccc7cccc(c(=O)c5c14)c76)c32
TGI (SK-MEL-5 melanoma): 22.2 µM | TGI (DMS 114 small cell lung): 18.5 µM | TGI (SNB-78 CNS): 21.2 µM | TGI (KM20L2 colon): 26.2 µM | TGI (M19-MEL melanoma): 16.9 µM | TGI (HCC-2998 colon): > 31.6 µM | TGI (DLD-1 colon): 30.2 µM

O=C(O)CCSCCCN1C(=O)c2ccccc2C1=O
TGI (SK-MEL-5 melanoma): > 100 µM | TGI (DMS 114 small cell lung): > 100 µM | TGI (SNB-78 CNS): > 100 µM | TGI (KM20L2 colon): > 100 µM | TGI (M19-MEL melanoma): > 100 µM | TGI (HCC-2998 colon): > 100 µM

O=C(/C=C/c1ccc(Cl)c(Cl)c1)c1ccc(F)cc1
TGI (SK-MEL-5 melanoma): 41 µM | TGI (DMS 114 small cell lung): 30 µM | TGI (SNB-78 CNS): 41.1 µM | TGI (KM20L2 colon): 35.2 µM | TGI (M19-MEL melanoma): 32.5 µM | TGI (HCC-2998 colon): 32.8 µM | TGI (DLD-1 colon): 27.8 µM

O=C1OC(CC(=O)c2ccc(Cl)cc2Cl)C(Cl)=C1Cl (stereo unspecified)
TGI (SK-MEL-5 melanoma): > 66.3 µM | TGI (DMS 114 small cell lung): > 53.1 µM | TGI (SNB-78 CNS): > 71.3 µM | TGI (KM20L2 colon): 42 µM | TGI (M19-MEL melanoma): 48.8 µM | TGI (HCC-2998 colon): 29.4 µM | TGI (DLD-1 colon): 54.5 µM

O=c1[nH]nc2ccccc2c1Cl
TGI (DMS 114 small cell lung): 18.9 µM | TGI (SNB-78 CNS): 41.1 µM | TGI (KM20L2 colon): 29.5 µM | TGI (M19-MEL melanoma): 20.1 µM | TGI (HCC-2998 colon): 7.27 µM | TGI (DLD-1 colon): 22.8 µM

C=CN1C(=O)OC[C@@H]1c1ccccc1
TGI (SK-MEL-5 melanoma): > 100 µM | TGI (DMS 114 small cell lung): > 100 µM | TGI (SNB-78 CNS): > 100 µM | TGI (KM20L2 colon): > 100 µM | TGI (M19-MEL melanoma): > 100 µM | TGI (HCC-2998 colon): > 100 µM | TGI (DLD-1 colon): > 100 µM

Cc1cc(NC(=O)NC(=O)c2ccccc2N)ccc1Oc1ncc(Br)cn1
TGI (SK-MEL-5 melanoma): 16.2 µM | TGI (MDA-MB-231 breast): 7.93 µM | TGI (DMS 114 small cell lung): 0.0209 µM | TGI (SNB-78 CNS): > 100 µM | TGI (KM20L2 colon): 0.442 µM | TGI (M19-MEL melanoma): > 100 µM | TGI (HCC-2998 colon): 7.77 µM | TGI (MDA-MB-435): < 0.0108 µM | TGI (DLD-1 colon): > 47.9 µM

[C-]#[O+].[C-]#[O+].[C-]#[O+].[C-]#[O+].[Ir].[Ir].[O-]c1ccc2ccccc2c1C=Nc1ccc(N=Cc2c([O-])ccc3ccccc23)cc1
GI50 (SK-MEL-5 melanoma): > 100 µM | TGI (SK-MEL-5 melanoma): > 100 µM | GI50 (DMS 114 small cell lung): > 100 µM | TGI (DMS 114 small cell lung): > 100 µM | GI50 (SNB-78 CNS): > 100 µM | TGI (SNB-78 CNS): > 100 µM | GI50 (KM20L2 colon): 59.2 µM | TGI (KM20L2 colon): > 100 µM | GI50 (M19-MEL melanoma): > 100 µM | TGI (M19-MEL melanoma): > 100 µM | GI50 (HCC-2998 colon): > 100 µM | TGI (HCC-2998 colon): > 100 µM | GI50 (DLD-1 colon): > 100 µM | TGI (DLD-1 colon): > 100 µM

CC1CC(c2cccc3c2OCO3)=Nc2ccccc2S1 (stereo unspecified)
TGI (SK-MEL-5 melanoma): > 100 µM | TGI (DMS 114 small cell lung): > 100 µM | TGI (SNB-78 CNS): > 100 µM | TGI (KM20L2 colon): > 100 µM | TGI (M19-MEL melanoma): > 100 µM | TGI (HCC-2998 colon): > 100 µM | TGI (DLD-1 colon): > 100 µM

OCC(O)C(OC1OC(CO)C(O)C(O)C1O)c1nn(-c2ccccc2)c2nc3cc(Cl)c(Cl)cc3cc12 (stereo unspecified)
TGI (SNB-78 CNS): > 100 µM | TGI (KM20L2 colon): > 100 µM | TGI (M19-MEL melanoma): > 100 µM | TGI (HCC-2998 colon): > 100 µM | TGI (DLD-1 colon): > 100 µM

C=C1C(=O)OC2C1CC[C@H](C)C13OC(=O)CC1[C@@]23C (stereo partly specified)
TGI (SK-MEL-5 melanoma): > 100 µM | TGI (DMS 114 small cell lung): > 100 µM | TGI (SNB-78 CNS): > 100 µM | TGI (M19-MEL melanoma): > 100 µM | TGI (HCC-2998 colon): > 100 µM | TGI (DLD-1 colon): > 100 µM

NNC(=O)CCC(=O)Nc1cc(Cl)c(Cl)cc1Cl
TGI (SK-MEL-5 melanoma): > 100 µM | TGI (DMS 114 small cell lung): > 100 µM | TGI (SNB-78 CNS): > 100 µM | TGI (KM20L2 colon): > 100 µM | TGI (M19-MEL melanoma): > 100 µM | TGI (HCC-2998 colon): > 100 µM | TGI (DLD-1 colon): > 100 µM

O=C1/C(=C/c2ccc3c(c2)OCO3)CCC1CN1CCOCC1 (stereo unspecified)
TGI (SK-MEL-5 melanoma): 20.4 µM | TGI (MDA-MB-231 breast): 7.73 µM | TGI (DMS 114 small cell lung): 15.6 µM | TGI (SNB-78 CNS): 41.8 µM | TGI (KM20L2 colon): 36.9 µM | TGI (M19-MEL melanoma): 10 µM | TGI (HCC-2998 colon): 17.4 µM | TGI (MDA-MB-435): 40.6 µM | TGI (DLD-1 colon): 6.31 µM | TGI (BT-549 breast): 42.1 µM
